Experimental data published in US20240277631A1, “SMALL MOLECULE DRUG (ELP-004) TO PREVENT BONE LESIONS CAUSED BY MULTIPLE MYELOMA” (West Virginia University Board of Governors on behalf of …, priority 2023, published 2024).

Legend:
[1] = pharmacokinetics in mice, i.v., p.o., s.c.; type: in vivo, female C57B16 mice
Method: ELP-004 was reconstituted in 20% hydroxypropyl-beta-cyclodextrin (HPbCD) and administered to female C57B16 mice (3/timepoint/route of administration) in the fed state. Following i.v. (2 mg/kg) […] from whole blood at 5, 15, and 30 min and at 1, 2, 4, 7, and 24 h. ELP-004 concentration was measured by LC-MS/MS. The data was fit to a two-compartment model and slopes for the a and B elimination were determined.
Depicted in table 1 is pharmacokinetic data of ELP-004 administered via i.v, p.o., and s.c. ELP-004 was reconstituted in 20% hydroxypropyl-beta-cyclodextrin (HPbCD) and administered to female C57B16 mice (3/timepoint/route of administration) in the fed state. Following i.v. (2 mg/kg), s.c. (2 mg/kg), or p.o. (10 mg/kg) administration, plasma was isolated from whole blood at 5, 15, and 30 min and at 1, 2, 4, 7, and 24 h. Plasma from p.o. was not isolated at 5 min. ELP-004 concentration was measured by LC-MS/MS (see below). The limit of quantification was 10 ng/ml and samples below that were not used in the analyses. PK parameters were calculated using Phoenix WinNonlin (Certara, NJ, USA).

[2] = target: CYP2C19 (Homo sapiens, UniProt P33261); test: stability with recombinant CYP2C19; type: in vitro ADME; details: recombinant CYP2C19, intrinsic clearance, read-out: Recombinant CYP CLINT
Chain of CYP2C19 (P33261 whole entry): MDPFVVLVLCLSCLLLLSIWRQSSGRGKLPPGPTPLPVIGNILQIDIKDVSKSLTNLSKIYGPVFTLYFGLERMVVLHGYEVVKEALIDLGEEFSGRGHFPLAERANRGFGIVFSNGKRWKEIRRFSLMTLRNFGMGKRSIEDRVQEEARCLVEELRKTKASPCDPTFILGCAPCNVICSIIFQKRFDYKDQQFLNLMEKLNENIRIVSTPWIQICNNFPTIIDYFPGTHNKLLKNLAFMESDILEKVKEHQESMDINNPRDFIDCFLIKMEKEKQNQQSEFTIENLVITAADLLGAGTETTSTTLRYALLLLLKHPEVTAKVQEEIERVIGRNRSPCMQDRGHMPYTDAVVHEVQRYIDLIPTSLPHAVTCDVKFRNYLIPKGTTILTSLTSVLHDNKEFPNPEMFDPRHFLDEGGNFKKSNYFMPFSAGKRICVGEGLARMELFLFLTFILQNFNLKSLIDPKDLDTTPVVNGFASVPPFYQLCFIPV
Method: (§1) Depicted in table 2 is cytochrome P450 phenotyping and inhibition by ELP-004. The stability of ELP-004 was tested in the presence of recombinant enzymes CYP1A2, CYP2B6, CYP2C8, CYP2C9, CYP2C19, CYP2D6, and CYP3A4. ELP-004 (1 μM) was incubated with recombinant enzymes and NADPH. The amount of ELP-004 remaining at each timepoint was analyzed by LC-MS/MS. Incubations in control recombinant enzymes were also performed to assess non-enzymatic mediated stability. The intrinsic clearance of ELP-004 was determined. […] A decrease in the formation of the metabolite compared to vehicle control is used to calculate an IC50 value. Metabolite peak area ratio response as a percentage of vehicle control is plotted against the test compound concentration.

[3] = target: T1, CYP1A2 (Homo sapiens, UniProt P05177); test: stability with recombinant CYP1A2; type: in vitro ADME; details: recombinant CYP1A2, intrinsic clearance, read-out: Recombinant CYP CLINT
T1 sequence (P05177 1-516): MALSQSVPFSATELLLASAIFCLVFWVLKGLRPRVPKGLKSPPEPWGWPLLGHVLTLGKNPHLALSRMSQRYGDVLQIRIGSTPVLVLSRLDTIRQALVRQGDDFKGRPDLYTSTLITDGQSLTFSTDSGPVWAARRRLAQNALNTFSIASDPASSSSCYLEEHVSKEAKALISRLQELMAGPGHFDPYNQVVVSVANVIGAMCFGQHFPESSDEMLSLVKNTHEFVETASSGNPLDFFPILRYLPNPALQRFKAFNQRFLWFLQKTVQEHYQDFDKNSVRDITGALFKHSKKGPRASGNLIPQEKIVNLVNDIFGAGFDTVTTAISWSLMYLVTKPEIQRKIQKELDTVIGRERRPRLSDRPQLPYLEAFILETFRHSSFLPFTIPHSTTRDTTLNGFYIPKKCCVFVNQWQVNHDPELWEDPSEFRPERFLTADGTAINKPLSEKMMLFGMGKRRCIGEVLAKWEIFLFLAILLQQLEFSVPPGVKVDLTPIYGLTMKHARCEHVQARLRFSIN
Method: as §1

[4] = target: T2, CYP2B6 (Homo sapiens, UniProt P20813); test: stability with recombinant CYP2B6; type: in vitro ADME; details: recombinant CYP2B6, intrinsic clearance, read-out: Recombinant CYP CLINT
T2 sequence (P20813 1-491): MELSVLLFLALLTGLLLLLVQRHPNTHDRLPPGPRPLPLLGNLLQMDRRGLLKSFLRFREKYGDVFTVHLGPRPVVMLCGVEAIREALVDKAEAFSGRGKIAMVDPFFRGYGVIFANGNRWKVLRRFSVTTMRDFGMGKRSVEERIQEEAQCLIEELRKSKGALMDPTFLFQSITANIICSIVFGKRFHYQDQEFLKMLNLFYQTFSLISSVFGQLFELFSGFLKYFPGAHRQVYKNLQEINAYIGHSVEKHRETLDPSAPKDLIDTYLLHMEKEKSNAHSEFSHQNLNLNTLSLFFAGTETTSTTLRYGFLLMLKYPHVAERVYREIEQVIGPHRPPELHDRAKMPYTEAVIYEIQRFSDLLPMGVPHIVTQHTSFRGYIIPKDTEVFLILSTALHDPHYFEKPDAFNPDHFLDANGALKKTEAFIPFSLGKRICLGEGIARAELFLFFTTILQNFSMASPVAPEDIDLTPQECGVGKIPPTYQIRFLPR
Method: as §1

[5] = system: human myeloma cells (U266 cells); test: bone loss in the animal model of multiple myeloma; type: in vivo; details: mice engrafted with human U266 myeloma cells, 60 mg/kg ELP-004 at 72h intervals (summary statement)
Method: Shown are cross-sections of distal femur micro-computer tomographic images from mice treated with 60 mg/kg ELP-004 or vehicle control at 72h intervals after the engraftment of human 2×10^6 myeloma cells (U266 cells). Confirmation of engraftment was verified by measuring serum human IgE levels.

[6] = target: CYP2C9 (Homo sapiens, UniProt P11712); test: stability with recombinant CYP2C9; type: in vitro ADME
Chain of CYP2C9 (P11712 whole entry): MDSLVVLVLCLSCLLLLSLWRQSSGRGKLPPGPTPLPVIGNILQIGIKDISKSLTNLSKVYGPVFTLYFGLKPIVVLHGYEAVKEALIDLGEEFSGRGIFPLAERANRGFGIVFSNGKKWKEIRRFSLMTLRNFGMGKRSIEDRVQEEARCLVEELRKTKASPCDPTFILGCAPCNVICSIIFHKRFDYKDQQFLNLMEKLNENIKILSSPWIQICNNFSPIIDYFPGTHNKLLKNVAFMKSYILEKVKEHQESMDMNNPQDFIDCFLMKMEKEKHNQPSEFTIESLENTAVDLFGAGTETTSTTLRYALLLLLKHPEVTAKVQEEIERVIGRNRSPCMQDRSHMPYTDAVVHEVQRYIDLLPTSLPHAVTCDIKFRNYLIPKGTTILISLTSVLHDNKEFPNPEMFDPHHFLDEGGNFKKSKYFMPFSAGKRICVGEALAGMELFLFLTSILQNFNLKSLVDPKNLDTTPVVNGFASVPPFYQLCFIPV
Method: as §1

[7] = system: Murine BMSMCs; test: LTB4-induced osteoclast fusion (TRAP, multinucleation, marker mRNA); type: cell-based; details: RANKL/LTB4
Method: FIGS. 6A-C show ELP-004 blocking LTB4-induced Osteoclast Fusion. (A-C) Murine BMSMCs were grown for up to 21 days in media supplemented with 50 ng/ml m-CSF, 1 ng/ml RANKL and 50 nM LTB4. Each experiment was repeated a minimum of three times. Cells were fixed and stained for Tartrate Resistant Acid Phosphatase (TRAP) activity at days 1, 7, 14 and 21. In schematic A, the number of TRAP positive osteoclast-like cells (out of 100 cells) were counted for each time point; TRAP intensity was also calculated. In schematic B, at each time point, the number of nuclei for each cell was counted and the average number of nuclei per cell for 100 cells is shown. In schematic C, mRNA expression of osteoclast markers such as TRAP5, VATPASE A3, VATPASE D2 and Calcitonin Receptor (CALCR) were measured at days 7 and 14 for both control and treated cells by RT-PCR. […] The expression patterns of osteoclast markers was unaffected by ELP-004, indicating selective inhibition of specific features of osteoclastogenesis.

Which “time until essentially eliminated” value ([1]; administered orally) does the source give for `CCC(=O)N(C)c1ccc(Cl)c(Cl)c1` [ELP-004, N-(3,4-dichlorophenyl)-N-methylpropanamide] here?
Its value is at most 4 h.

And the C0 ([1]; female, C57B16, mouse, plasma, iv, i.v. 2 mg/kg)?
The C0 was 1220 ng/mL.

And the microsomal CLint at 1 μM [2]?
The microsomal CLint at 1 μM was 0.279 µL/min/mg.

And the microsomal CLint at 1 μM [3]?
Its microsomal CLint at 1 μM is 2.85 µL/min/mg.

And the microsomal CLint at 1 μM [4]?
Its microsomal CLint at 1 μM is 0.815 µL/min/mg.

What about the “development of bone lesions” value [5] of the same compound?
Its value is “strongly suppressed”.

What about the microsomal CLint at 1 μM ([6]; human, recombinant CYP2C9, intrinsic clearance, read-out: Recombinant CYP CLINT) of the same compound?
The microsomal CLint at 1 μM was under 0.154 µL/min/mg.

And the “metabolism by recombinant enzyme” value ([6]; recombinant CYP2C9)?
The value was “not metabolized”.

And the “ELP-004 t1/2” value ([6]; recombinant CYP2C9, 1 μM, NADPH)?
Its value is over 3 h.

What about the TRAP activity [7] of the same compound?
Its TRAP activity is “completed abrogated”.

And the “expression patterns of osteoclast markers” value [7]?
Its value is “unaffected”.

And the multinucleation [7]?
Its multinucleation is “severely attenuated”.
